Assay [1] relates to Plasmodium falciparum. The assay is described as follows: ST_JUDE: Plasmodium falciparum K1 EC50 (uM) as measured by SYBR green dye. The class given is functional, organism-based.
Assay [2] has as its system Plasmodium falciparum. The assay is described as follows: ST_JUDE: Plasmodium falciparum 3D7 EC50 (uM) as measured by SYBR green dye. The class given is functional, organism-based.

With `CN1CCN(c2ccc(-c3cccc(NC(=O)c4cccc([N+](=O)[O-])c4)c3)nn2)CC1`, the EC50 (in general, the concentration that produces a half-maximal response) in the assay on Plasmodium falciparum [1] is 3.83 µM; in the assay with Plasmodium falciparum [2], above 15 µM.

In the case of `COc1ccc(C2C(C#N)=C(C(C)(C)C)Nc3ncnn32)cc1` (centres undefined), the EC50 is above 15 µM in the assay on Plasmodium falciparum [1] and 8.08 µM with Plasmodium falciparum [2].

On to `Cc1cccc2sc(NNC(=O)c3ccc(S(=O)(=O)N(C)C)cc3)nc12`, for which the EC50 with Plasmodium falciparum [1] was 5.83 µM; in the assay on Plasmodium falciparum [2], 7.12 µM.

As for `COc1cc(/C=C(\C#N)C(=O)Nc2ccccc2F)cc(OC)c1OC`, the EC50 in the assay with Plasmodium falciparum [1] and in the assay with Plasmodium falciparum [2] was above 15 µM in each case.

Consider `CCOc1cc(Br)c(C2C(C#N)=C(N)Oc3cc(O)ccc32)cc1OCC` (centres undefined), for which the concentration giving a half-maximal response (EC50) in the assay on Plasmodium falciparum [1] stood at 1.52 µM; with Plasmodium falciparum [2] it was 3.8 µM.

For the compound `CCN(CC)CCNc1nc(Nc2ccc(F)cc2)c2cnn(-c3ccccc3)c2n1`, the EC50 in the assay with Plasmodium falciparum [1] came out at 3.02 µM; with Plasmodium falciparum [2] it was 1.34 µM.

Consider `CCOC(=O)C1=C(CN(C)c2ccc(F)cc2)NC(=O)NC1c1ccc(Cl)cc1` (centres undefined), for which the values for the EC50 in the assay with Plasmodium falciparum [1] and with Plasmodium falciparum [2] were 6.3 µM and above 15 µM, respectively.

On to `COc1ccc(-c2nonc2NC(=O)c2ccc(C(C)(C)C)cc2)cc1OC`, for which the values for the EC50 in the assay on Plasmodium falciparum [1] and in the assay with Plasmodium falciparum [2] were 1.17 µM and 1.06 µM, respectively.

As to `CN(C)CCNc1nc(Cc2ccccc2)nc2sc3c(c12)CCCC3`, the EC50 in the assay on Plasmodium falciparum [1] and in the assay on Plasmodium falciparum [2] was above 15 µM in each case.

In the case of `CC(=O)NC(c1ccccc1Cl)c1ccc2cccnc2c1O` (centres undefined), the figures for the EC50 with Plasmodium falciparum [1] and with Plasmodium falciparum [2] were 3.79 µM and 3.39 µM, respectively.

Take `CCOc1ccc(/C=c2\sc3n(c2=O)CN(c2cccc(F)c2)CN=3)cc1`: the EC50 with Plasmodium falciparum [1] and in the assay with Plasmodium falciparum [2] was above 15 µM throughout.

Take `Cn1c(-c2ccc(F)cc2)[n+](C)c2ccccc21`: the values for the half-maximal effective concentration (EC50) with Plasmodium falciparum [1] and with Plasmodium falciparum [2] were 3.79 µM and 1.88 µM, respectively.

Turning to `CCOc1ccc(Nc2cc(C)nc(Nc3ccc(OCC)cc3)n2)cc1`, the EC50 in the assay with Plasmodium falciparum [1] and in the assay on Plasmodium falciparum [2] was above 15 µM each time.

As for `CCOC(=O)c1c(CSC(=N)N)n(-c2ccccc2)c2cc(Br)c(OC(C)=O)cc12`, the EC50 in the assay with Plasmodium falciparum [1] was found to be 2.9 µM; with Plasmodium falciparum [2], 0.749 µM.

On to `CN1CCN(c2nc(Nc3cccc(Cl)c3)c3cnn(-c4ccccc4)c3n2)CC1`, for which the EC50 in the assay on Plasmodium falciparum [1] came out at 4.58 µM; with Plasmodium falciparum [2], 3.88 µM.

With `CCc1ccccc1Nc1nc(-c2cccnc2)cs1`, the EC50 in the assay with Plasmodium falciparum [1] and in the assay on Plasmodium falciparum [2] was above 15 µM throughout.

For `CCOc1cc(C2CC(=O)NC3=C2C(=O)CC(c2ccc(OC)cc2)C3)cc(Br)c1O` (centres undefined), the EC50 in the assay with Plasmodium falciparum [1] was determined as 1.53 µM; with Plasmodium falciparum [2], 1.13 µM.

`COc1ccc(C2CC3=NC(C)=C(C(=O)OCC(C)C)C(c4ccc(F)cc4)C3=C(O)C2)cc1` (centres undefined): the EC50 with Plasmodium falciparum [1] was found to be 3.01 µM; in the assay with Plasmodium falciparum [2], 2.7 µM.

Consider `Cc1cc(Nc2ccc(C(C)C)cc2)n2ncnc2n1`, for which the figures for the EC50 in the assay with Plasmodium falciparum [1] and in the assay with Plasmodium falciparum [2] were 0.961 µM and 0.502 µM, respectively.

Consider `Cc1ccccc1OCC(O)Cn1c(=N)n(CCN2CCCCC2)c2ccccc21` (centres undefined), for which the half-maximal effective concentration (EC50) was found to be 5.4 µM in the assay on Plasmodium falciparum [1] and 4.76 µM with Plasmodium falciparum [2].

In the case of `Cc1ccc(Nc2nc(NCCO)c3ccccc3n2)cc1C`, the EC50 in the assay with Plasmodium falciparum [1] was found to be 2.27 µM; with Plasmodium falciparum [2] it was 0.843 µM.

With `CCc1ccc2nc(N(Cc3cccnc3)C(C)=O)sc2c1`, the EC50 in the assay on Plasmodium falciparum [1] and in the assay on Plasmodium falciparum [2] was above 15 µM throughout.

On to `O=C(CSc1nc(-c2ccccc2Cl)ns1)Nc1cccc(Cl)c1`, for which the EC50 with Plasmodium falciparum [1] is 1.7 µM; with Plasmodium falciparum [2] it was 1.39 µM.

Consider `Cc1ccsc1CN(C(=O)COc1ccc(C(C)C)cc1)C1CCS(=O)(=O)C1` (centres undefined), for which the EC50 in the assay with Plasmodium falciparum [1] and in the assay with Plasmodium falciparum [2] was above 15 µM in each case.

As for `CCOc1ccc(N2C(N)=NC(N)=NC2(C)C)cc1`, the 50% effective concentration (EC50) in the assay on Plasmodium falciparum [1] is above 15 µM; in the assay with Plasmodium falciparum [2], 0.238 µM.

As for `CCCO/C(O)=C1\C(C)=NC2=C(C(=O)CC(c3ccccc3OC)C2)C1c1ccc(OC)c(OC)c1` (centres undefined), the results for the EC50 in the assay on Plasmodium falciparum [1] and in the assay on Plasmodium falciparum [2] were 3.8 µM and 3.85 µM, respectively.

Regarding `O=C(Nc1nnc(-c2ccc3c(c2)CCCC3)o1)c1ccc(F)cc1`, the EC50 in the assay with Plasmodium falciparum [1] and in the assay with Plasmodium falciparum [2] was above 15 µM each time.

With `O=C(Nc1ccc(Cl)cc1)Nc1cc(Cl)cc(Cl)c1`, the EC50 was determined as 1.63 µM in the assay on Plasmodium falciparum [1] and 3.21 µM in the assay with Plasmodium falciparum [2].

As for `CCCCc1ccc(NC(=S)NN2CCN(C)CC2)cc1`, the EC50 with Plasmodium falciparum [1] and with Plasmodium falciparum [2] was above 15 µM in each case.

For the compound `Cn1c(=O)oc2cc(S(=O)(=O)N3CCCC(C(=O)N4CCN(C(c5ccccc5)c5ccccc5)CC4)C3)ccc21` (centres undefined), the figures for the EC50 in the assay with Plasmodium falciparum [1] and in the assay with Plasmodium falciparum [2] were 1.61 µM and 3.56 µM, respectively.

Consider `CN(C)S(=O)(=O)c1ccc(C(=O)NNc2nc3ccc(F)cc3s2)cc1`, for which the EC50 in the assay with Plasmodium falciparum [1] came out at 4.27 µM; with Plasmodium falciparum [2] it was 6.05 µM.

On to `Cc1ccc2ccc(C(Nc3ccccn3)c3cccc(Br)c3)c(O)c2n1` (centres undefined), for which the half-maximal effective concentration (EC50) was 4.78 µM in the assay with Plasmodium falciparum [1] and above 15 µM in the assay with Plasmodium falciparum [2].

For the compound `CC(=O)NCC(=O)NC1CC(C)(C)Cc2c1cnn2-c1ccccc1` (centres undefined), the EC50 in the assay on Plasmodium falciparum [1] and in the assay with Plasmodium falciparum [2] was above 15 µM each time.

For the compound `CCOC(=O)c1ccc2nc(C)cc(Nc3ccc(OC)cc3)c2c1`, the figures for the EC50 in the assay with Plasmodium falciparum [1] and in the assay with Plasmodium falciparum [2] were above 15 µM and 2.86 µM, respectively.

For `Oc1c2c(nc3cc(-c4ccc(Br)cc4)nn13)CCCC2`, the values for the EC50 with Plasmodium falciparum [1] and with Plasmodium falciparum [2] were 0.632 µM and above 15 µM, respectively.

Take `O=C(c1ccc(Cl)cc1Cl)N1CCCC(C(F)(F)F)C1` (centres undefined): the EC50 is above 15 µM in the assay on Plasmodium falciparum [1] and 1.46 µM in the assay on Plasmodium falciparum [2].

As to `O=C(Nc1cccc(C(F)(F)F)c1)c1cc2ccccc2oc1=O`, the EC50 in the assay on Plasmodium falciparum [1] and in the assay on Plasmodium falciparum [2] was above 15 µM each time.

`Cc1ccc(CN2CCN(Cc3ccc(OCCO)cc3)CC2CCO)o1` (centres undefined): the EC50 with Plasmodium falciparum [1] and in the assay with Plasmodium falciparum [2] was above 15 µM in each case.

Take `CO/C(O)=C1\C(C)=NC2=C(C(=O)CC(c3ccc(OC)c(OC)c3)C2)C1c1cccc(C)c1` (centres undefined): the concentration for a half-maximal effect (EC50) worked out at 3.86 µM with Plasmodium falciparum [1] and 3.69 µM in the assay with Plasmodium falciparum [2].

Take `O=C1/C(=C/c2ccc(F)cc2)Oc2c1ccc(O)c2CN1CCCCC1`: the EC50 was 0.469 µM in the assay with Plasmodium falciparum [1] and 2.03 µM in the assay with Plasmodium falciparum [2].

With `CCCCCCc1cc(O)c2c(C)cc(=O)oc2c1`, the half-maximal effective concentration (EC50) is 4.15 µM with Plasmodium falciparum [1] and above 15 µM in the assay on Plasmodium falciparum [2].

In the case of `CCOC(=O)c1cnc2ccc(OC)cc2c1Nc1ccc(N2CCN(C)CC2)cc1`, the EC50 in the assay on Plasmodium falciparum [1] was determined as 1.29 µM; in the assay with Plasmodium falciparum [2], 0.575 µM.

As to `Cc1cccc(CN2C(=O)/C(=C\c3ccc(C(=O)N4CCC(N5CCCCC5)CC4)cc3)Oc3ccccc32)c1`, the EC50 is above 15 µM with Plasmodium falciparum [1] and 4.03 µM with Plasmodium falciparum [2].

As for `O=C(CSc1ccccc1[N+](=O)[O-])Nc1cccc(Br)c1`, the EC50 in the assay on Plasmodium falciparum [1] and with Plasmodium falciparum [2] was above 15 µM throughout.

For `Cc1ccc(-c2n(C)c3ccccc3[n+]2C)cc1`, the results for the EC50 in the assay with Plasmodium falciparum [1] and in the assay with Plasmodium falciparum [2] were above 15 µM and 11.9 µM, respectively.

As to `CN1CCN(c2nc(Nc3ccc(O)cc3)nc3ccccc23)CC1`, the concentration for a half-maximal effect (EC50) turned out to be 6.2 µM with Plasmodium falciparum [1] and 2.75 µM with Plasmodium falciparum [2].

Regarding `Cc1ccc(NC(=O)C2(c3ccc([N+](=O)[O-])cc3)CCCC2)cc1`, the EC50 is 3.82 µM with Plasmodium falciparum [1] and above 15 µM with Plasmodium falciparum [2].

Turning to `Cc1ccc(NC(=O)c2ccc(Br)o2)c(Br)c1`, the EC50 in the assay on Plasmodium falciparum [1] and in the assay on Plasmodium falciparum [2] was above 15 µM throughout.

With `COc1ccc(Cn2c(SCc3cccc(F)c3)nc3nccnc3c2=O)cc1`, the EC50 in the assay with Plasmodium falciparum [1] and in the assay with Plasmodium falciparum [2] was above 15 µM each time.

In the case of `Cc1ccc(Nc2nc(NCc3ccccc3)c3ccccc3n2)cc1`, the results for the EC50 in the assay with Plasmodium falciparum [1] and in the assay with Plasmodium falciparum [2] were 3.6 µM and 0.754 µM, respectively.

`Cc1cc(Br)ccc1OCCCCn1ccnc1`: the concentration for a half-maximal effect (EC50) in the assay on Plasmodium falciparum [1] and with Plasmodium falciparum [2] was above 15 µM in each case.

In the case of `COCCn1c(SCC(=O)Nc2cc(C(F)(F)F)ccc2Cl)nc2c(c1=O)SC(C)C2` (centres undefined), the EC50 was 0.568 µM in the assay on Plasmodium falciparum [1] and above 15 µM with Plasmodium falciparum [2].

(Values after ChEMBL document CHEMBL1154198, “Chemical genetics of Plasmodium falciparum” (Nature, 2010).)
